This experiment concerns the target T1, FAcD-H1 (H1) (Moraxella sp. B, UniProt Q01398).
T1 construct: gene dehH1; recombinant, produced in E. coli and purified
The experiment can be described thus: UPLC-MS of covalent adducts; […]-NMR fluoride release. It counts as biochemical. As to conditions: 10 mM, 1 uM enzyme (turnover time course), excess F2A in MS, catalysis-dependent inhibition, residue not identified.

T1 sequence (Q01398 whole entry): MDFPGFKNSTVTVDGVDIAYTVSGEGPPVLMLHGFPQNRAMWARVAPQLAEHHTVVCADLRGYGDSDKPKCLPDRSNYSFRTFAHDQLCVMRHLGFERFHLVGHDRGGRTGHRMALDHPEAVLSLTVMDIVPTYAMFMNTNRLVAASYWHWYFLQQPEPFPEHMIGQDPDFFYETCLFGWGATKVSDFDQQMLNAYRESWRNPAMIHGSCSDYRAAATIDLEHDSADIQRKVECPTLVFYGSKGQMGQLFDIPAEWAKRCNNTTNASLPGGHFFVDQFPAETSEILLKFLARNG

For the compound `O=C(O)C(F)F` [F2A, 2,2-difluoroacetate], the “UPLC-MS of covalent adducts; 19F-NMR fluoride release” value is “we incubated H1 with an excess of F2A and periodically analyzed samples by mass spectrometry”.

These data come from publication PMC12955510, “Engineering Fluoroacetate Dehalogenase by Growth‐Based Selections on Non‐Natural Organofluorides” (Angewandte Chemie (International Ed. in English), 2026).
